In ChEMBL document CHEMBL1201862, “PubChem BioAssay data set” (2004):
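All cell lines were grown in 96-well plates and treated with compound for 48 hours. GI50 = concentration required for 50% inhibition of growth.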 Active and inactive are the calls of the source. No stated cut-off is given here; in the data, active = GI50 up to about 1.1 µM and inactive = higher.

Experiments:
Experiment in all cases: DTP human tumour cell line panel, 48 h
786-0 = tested on: 786-0
A498 = tested on: A498
A549 = tested on: A549
ACHN = tested on: ACHN
CAKI-1 = tested on: CAKI-1
CCRF-CEM = tested on: CCRF-CEM
COLO 205 = tested on: COLO 205
DU-145 = tested on: DU-145
EKVX = tested on: EKVX
HCC 2998 = tested on: HCC 2998
HCT-116 = tested on: HCT-116
HCT-15 = tested on: HCT-15
HL-60 = tested on: HL-60
HOP-62 = tested on: HOP-62
HOP-92 = tested on: HOP-92
HT-29 = tested on: HT-29
Hs-578T = tested on: Hs-578T
IGROV-1 = tested on: IGROV-1
K562 = tested on: K562
KM12 = tested on: KM12
LOX IMVI = tested on: LOX IMVI
M14 = tested on: M14
MCF7 = tested on: MCF7
MDA-MB-231 = tested on: MDA-MB-231
MDA-MB-435 = tested on: MDA-MB-435
MDA-N = tested on: MDA-N
MOLT-4 = tested on: MOLT-4
Malme-3M = tested on: Malme-3M
NCI-H226 = tested on: NCI-H226
NCI-H23 = tested on: NCI-H23
NCI-H460 = tested on: NCI-H460
NCI-H522 = tested on: NCI-H522
NCI/ADR-RES = tested on: NCI/ADR-RES
OVCAR-3 = tested on: OVCAR-3
OVCAR-4 = tested on: OVCAR-4
OVCAR-5 = tested on: OVCAR-5
OVCAR-8 = tested on: OVCAR-8
PC-3 = tested on: PC-3
RPMI-8226 = tested on: RPMI-8226
RXF 393 = tested on: RXF 393
SF-268 = tested on: SF-268
SF-295 = tested on: SF-295
SF-539 = tested on: SF-539
SK-MEL-28 = tested on: SK-MEL-28
SK-MEL-2 = tested on: SK-MEL-2
SK-MEL-5 = tested on: SK-MEL-5
SK-OV-3 = tested on: SK-OV-3
SN12C = tested on: SN12C
SNB-19 = tested on: SNB-19
SNB-75 = tested on: SNB-75
SR = tested on: SR
SW-620 = tested on: SW-620
T47D = tested on: T47D
TK-10 = tested on: TK-10
U-251 = tested on: U-251
UACC-257 = tested on: UACC-257
UACC-62 = tested on: UACC-62
UO-31 = tested on: UO-31
BT-549 = tested on: BT-549

Measured: GI50

COc1ccc(/C=C/C(=O)c2cc(OC)cc(OC)c2)cc1
0.543 µM: HCT-15
active: HL-60 0.151 µM | KM12 0.265 µM | MCF7 0.219 µM | RPMI-8226 0.646 µM | SF-539 1.05 µM | SR 0.371 µM | SW-620 0.64 µM
inactive: 786-0 1.16 µM | A498 3.67 µM | A549 2.13 µM | ACHN 4.7 µM | CAKI-1 2.59 µM | CCRF-CEM 2.07 µM | COLO 205 4.56 µM | DU-145 3.24 µM | EKVX 6.52 µM | HCC 2998 4.44 µM | HCT-116 1.22 µM | HOP-62 3.78 µM | HOP-92 20.8 µM | HT-29 1.91 µM | Hs-578T 5.75 µM | IGROV-1 4.57 µM | K562 2.59 µM | LOX IMVI 1.35 µM | M14 2.45 µM | MDA-MB-231 6.79 µM | MDA-MB-435 1.54 µM | MDA-N 1.94 µM | MOLT-4 4.63 µM | Malme-3M 13.6 µM | NCI-H226 10.2 µM | NCI-H23 2.58 µM | NCI-H460 2.9 µM | NCI-H522 2.22 µM | NCI/ADR-RES 2.69 µM | OVCAR-3 4.02 µM | OVCAR-4 3.45 µM | OVCAR-5 5.6 µM | OVCAR-8 3.39 µM | PC-3 6.12 µM | RXF 393 3.33 µM | SF-268 5.4 µM | SF-295 1.24 µM | SK-MEL-28 5.97 µM | SK-MEL-2 18.7 µM | SK-MEL-5 10.3 µM | SK-OV-3 6.71 µM | SN12C 3.56 µM | SNB-19 1.69 µM | SNB-75 2.64 µM | T47D 3.11 µM | TK-10 11.5 µM | U-251 1.24 µM | UACC-257 13.6 µM | UACC-62 4.14 µM | UO-31 3.27 µM

COc1cc(Oc2nc3ccccc3nc2C(=O)O)cc(OC)c1OC
inactive: 786-0 > 100 µM | A498 > 100 µM | A549 > 100 µM | ACHN > 100 µM | BT-549 > 100 µM | CAKI-1 > 100 µM | CCRF-CEM > 100 µM | COLO 205 > 100 µM | DU-145 > 100 µM | EKVX > 100 µM | HCC 2998 > 100 µM | HCT-116 > 100 µM | HL-60 > 100 µM | HOP-62 > 100 µM | HOP-92 > 100 µM | HT-29 > 100 µM | Hs-578T > 100 µM | IGROV-1 > 100 µM | K562 > 100 µM | KM12 > 100 µM | LOX IMVI > 100 µM | M14 > 100 µM | MDA-MB-231 > 100 µM | MDA-MB-435 > 100 µM | MOLT-4 > 100 µM | Malme-3M > 100 µM | NCI-H226 > 100 µM | NCI-H23 > 100 µM | NCI-H460 > 100 µM | NCI-H522 > 100 µM | NCI/ADR-RES > 100 µM | OVCAR-3 > 100 µM | OVCAR-4 > 100 µM | OVCAR-5 > 100 µM | OVCAR-8 > 100 µM | PC-3 > 100 µM | RPMI-8226 > 100 µM | RXF 393 > 100 µM | SF-268 > 100 µM | SF-295 > 100 µM | SK-MEL-28 > 100 µM | SK-MEL-2 > 100 µM | SK-MEL-5 > 100 µM | SK-OV-3 > 100 µM | SNB-19 > 100 µM | SNB-75 > 100 µM | SR > 100 µM | SW-620 > 100 µM | T47D > 100 µM | TK-10 > 100 µM | U-251 > 100 µM | UACC-257 > 100 µM | UACC-62 > 100 µM | UO-31 > 100 µM
> 100 µM: HCT-15

Cc1cccc(/C=C2/C(=O)Nc3ccccc32)n1
13.3 µM: HCT-15
inactive: 786-0 13 µM | A498 21.3 µM | ACHN 10.3 µM | BT-549 21.4 µM | CAKI-1 11.9 µM | CCRF-CEM 15.4 µM | COLO 205 19.9 µM | DU-145 13.2 µM | EKVX 16.8 µM | HCC 2998 10.6 µM | HCT-116 12.2 µM | HL-60 9.95 µM | HOP-62 16.6 µM | HOP-92 7.82 µM | HT-29 24.1 µM | Hs-578T 24.2 µM | K562 9.98 µM | KM12 13.2 µM | M14 15.1 µM | MCF7 5.79 µM | MDA-MB-435 16.7 µM | MOLT-4 7.5 µM | Malme-3M 16.3 µM | NCI-H23 10.4 µM | NCI-H460 16.9 µM | NCI-H522 12.7 µM | NCI/ADR-RES 14.6 µM | OVCAR-3 14.2 µM | OVCAR-4 23.4 µM | OVCAR-5 11.9 µM | OVCAR-8 23.3 µM | PC-3 16.7 µM | RPMI-8226 14.7 µM | RXF 393 10.6 µM | SF-268 14.7 µM | SF-295 17.9 µM | SF-539 20.5 µM | SK-MEL-28 24.2 µM | SK-MEL-2 12.8 µM | SK-MEL-5 12.9 µM | SK-OV-3 18.1 µM | SNB-19 23.7 µM | SNB-75 28.8 µM | SW-620 19.3 µM | T47D 4.95 µM | TK-10 15.7 µM | U-251 15.7 µM | UO-31 14.3 µM

CC(C)=Cc1cc(C)c2c(O)cc(C)c3c2c1C(C)=C(O)C3=O
inactive: 786-0 25.8 µM | A498 22.9 µM | A549 24.8 µM | ACHN 25.5 µM | CAKI-1 27 µM | COLO 205 13 µM | DU-145 28.7 µM | HCT-116 17.7 µM | HL-60 29.9 µM | HOP-62 20.7 µM | HOP-92 7.85 µM | HT-29 14.9 µM | Hs-578T 27 µM | IGROV-1 27.5 µM | K562 13 µM | KM12 20.5 µM | LOX IMVI 20.1 µM | M14 22.4 µM | MCF7 24.3 µM | MDA-MB-231 24.9 µM | MDA-MB-435 26.5 µM | MDA-N 33 µM | MOLT-4 25.8 µM | NCI-H226 21.5 µM | NCI-H23 23.4 µM | NCI-H460 21.2 µM | NCI-H522 18.3 µM | NCI/ADR-RES 30.1 µM | OVCAR-3 20.6 µM | OVCAR-5 28.7 µM | OVCAR-8 38.1 µM | PC-3 32.8 µM | SF-268 21.1 µM | SF-295 22.2 µM | SF-539 28.1 µM | SK-MEL-2 22.9 µM | SK-MEL-5 17.1 µM | SK-OV-3 28.9 µM | SN12C 32.9 µM | SNB-19 47.4 µM | SR 35.3 µM | SW-620 31.5 µM | T47D 21.2 µM | U-251 32.7 µM | UACC-257 36.6 µM | UACC-62 20.5 µM | UO-31 32.7 µM
23 µM: HCT-15
active: CCRF-CEM < 0.01 µM | RPMI-8226 0.0257 µM

CC1(C)OCC(CO)(CO)CO1
> 100 µM: HCT-15
inactive: A498 14 µM | A549 > 100 µM | ACHN > 100 µM | CCRF-CEM > 100 µM | COLO 205 > 100 µM | DU-145 > 100 µM | HCC 2998 > 100 µM | HCT-116 > 100 µM | HL-60 > 100 µM | HOP-92 > 100 µM | HT-29 > 100 µM | Hs-578T > 100 µM | K562 > 100 µM | KM12 > 100 µM | LOX IMVI > 100 µM | M14 > 100 µM | MCF7 > 100 µM | MDA-MB-231 > 100 µM | MDA-MB-435 > 100 µM | MDA-N > 100 µM | MOLT-4 > 100 µM | NCI-H226 > 100 µM | NCI-H23 > 100 µM | NCI-H460 > 100 µM | NCI-H522 > 100 µM | NCI/ADR-RES > 100 µM | OVCAR-3 > 100 µM | OVCAR-4 > 100 µM | OVCAR-8 > 100 µM | PC-3 > 100 µM | RXF 393 > 100 µM | SF-268 > 100 µM | SF-295 > 100 µM | SK-MEL-28 > 100 µM | SK-MEL-5 > 100 µM | SK-OV-3 > 100 µM | SN12C > 100 µM | SNB-19 > 100 µM | SNB-75 > 100 µM | SR > 100 µM | SW-620 > 100 µM | T47D > 100 µM | TK-10 > 100 µM | U-251 > 100 µM | UACC-257 > 100 µM | UO-31 > 100 µM
